Test results as given in patent US8993631B2, “Method of treating contrast-induced nephropathy” (Novartis AG, priority 2010, dated 2015).
Counter-ions that a name gives are not always drawn. Where no end group is shown, it is not given here.

Assays:
[1] = system: adult male cannulated Sprague-Dawley rats; assay: Renal function assessment in rats: GFR by FITC-inulin clearance method; conditions: relative to vehicle-treated rats
Description: A fluorescein isothiocyanate (FITC)-inulin stock solution was prepared by weighing the FITC-inulin powder, adding it to saline (50 mg/ml), and heating it in boiling water until dissolved. The solution was filtered and dialyzed overnight to remove unbound FITC. The next day, the dialysate was again filtered to sterilize it.
Approximately 1-2 weeks before the study, femoral arterial and venous catheters were implanted in the rats under isoflurane anesthesia. The catheters were exteriorized through a spring tether/swivel system and the instrumented rats were housed in specialized cages.
On the experimental day, rats were administered a NEP inhibitor or its vehicle by oral gavage. Thirty min later, FITC-inulin (10 mg/kg i.v. bolus) was administered via the venous catheter. Blood samples were withdrawn from the arterial catheter at 3, 7, 10, 15, 30, 60, 90, and 120 min after the FITC-inulin injection for plasma FITC-inulin and compound concentrations.
Arterial pressure was continuously monitored throughout the experiment.
The stock solution of FITC-inulin was serially diluted to generate a standard curve. The dosing solution was also diluted and analyzed to determine the exact amount of FITC-inulin injected. […] Concentrations of FITC-inulin in the plasma and dosing solution were determined by linear regression from the standard curve. FITC-inulin AUC(O-infinity) was derived by WinNonlin for each rat's plasma concentration-time curves. GFR (FITC-inulin clearance) was calculated for each animal as the injected dose divided by the AUC.

[2] = target: recombinant human neutral endopeptidase (NEP, EC 3.4.24.11) (Homo sapiens (Human), UniProt P08473); assay: In vitro inhibition of recombinant human neutral endopeptidase (fluorescence lifetime assay); assay type: biochemical; conditions: 1 hour pre-incubation, effect determined after 1 hour at room temperature, pH 7.4
Excerpt: The activity of a compound for use in the method according to the present invention can be assessed by the following in vitro & in vivo methods and/or by the following in vitro & in vivo methods well-described in the art. See A fluorescence lifetime-based assay for protease inhibitor profiling on human kallikrein 7 Doering K, Meder G, Hinnenberger M, Woelcke J, Mayr L M, Hassiepen U Biomol Screen.
In particular, the in vitro inhibition of recombinant human neutral endopeptidase (NEP, EC 3.4.24.11) can be determined as follows: […]

[3] = system: patients with chronic renal insufficiency undergoing cardiac catheterization; conditions: 48 hour infusion at 0.042 μg/kg/min, at-risk patients undergoing cardiac catheterization; cited from earlier work

Chain of recombinant human neutral endopeptidase (NEP, EC 3.4.24.11) (P08473 whole entry): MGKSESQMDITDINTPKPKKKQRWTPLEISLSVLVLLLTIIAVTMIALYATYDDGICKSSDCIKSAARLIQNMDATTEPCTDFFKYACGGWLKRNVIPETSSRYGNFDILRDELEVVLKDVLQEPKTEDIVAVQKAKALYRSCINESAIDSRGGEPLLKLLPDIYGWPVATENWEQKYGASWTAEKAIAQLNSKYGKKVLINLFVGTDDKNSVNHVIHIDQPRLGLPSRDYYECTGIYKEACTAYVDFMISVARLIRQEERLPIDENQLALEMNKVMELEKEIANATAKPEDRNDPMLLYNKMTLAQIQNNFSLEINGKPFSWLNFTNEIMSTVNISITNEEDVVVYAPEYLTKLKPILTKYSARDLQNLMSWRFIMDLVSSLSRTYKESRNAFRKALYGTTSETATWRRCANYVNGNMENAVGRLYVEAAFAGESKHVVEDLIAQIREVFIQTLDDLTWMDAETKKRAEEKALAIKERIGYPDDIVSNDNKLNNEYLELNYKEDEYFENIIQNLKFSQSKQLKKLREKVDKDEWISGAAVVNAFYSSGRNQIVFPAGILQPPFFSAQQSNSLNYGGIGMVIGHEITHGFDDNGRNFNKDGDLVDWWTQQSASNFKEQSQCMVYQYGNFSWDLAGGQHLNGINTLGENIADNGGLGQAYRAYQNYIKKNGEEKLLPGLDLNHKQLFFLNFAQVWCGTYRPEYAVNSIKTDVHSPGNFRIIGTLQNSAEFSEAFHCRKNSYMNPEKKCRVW

Row | Compound | IC50 [2] [nM] | % GFR increase ([1]; dose 1 mg/kg p.o.) [%] | other results
1 | CCOC(=O)C[C@@H](Cc1ccc(-c2cccc(Cl)c2)cc1)NC(=O)CCC(=O)O [Example 1-2, (R)-4-(1-(3′-chlorobiphenyl-4-yl)-4-ethoxy-4-oxobutan-2-ylamino)-4-oxobutanoic acid] |  |  | % GFR increase ([1]; dose 0.1 mg/kg p.o.): 23%
2 | CCOC(=O)C[C@@H](Cc1ccc(-c2ccccc2)cc1)NC(=O)CN1CCC[C@H]1C(=O)OCc1ccccc1 [Example 3-11, (S)-benzyl 1-(2-((R)-1-(biphenyl-4-yl)-4-ethoxy-4-oxobutan-2-ylamino)-2-oxoethyl)pyrrolidine-2-carboxylate trifluoroacetic acid salt] | 18 |  | 
3 | CCCCOC(=O)CCC(=O)N[C@@H](CC(=O)O)Cc1ccc(-c2cccc(Cl)c2)cc1 [Example 3-12, (R)-3-(4-butoxy-4-oxobutanamido)-4-(3′-chlorobiphenyl-4-yl)butanoic acid] | 15 | 32 | 
4 | CCc1ncc(C(=O)N[C@@H](CC(=O)O)Cc2ccc(-c3cc(Cl)ccc3F)cc2)o1 [Example 9-7] |  | 35 | 
5 | CCOC(=O)[C@H](C)N[C@@H](Cc1ccc(-c2cccc(Cl)c2)cc1)C(=O)Nc1nnn[nH]1 [Example 31, (S)-2-[(S)-2-(3′-chloro-biphenyl-4-yl)-1-(1H-tetrazol-5-ylcarbamoyl)-ethylamino]-propionic acid ethyl ester] |  |  | % GFR increase ([1]; dose 0.1 mg/kg p.o.): 27%
6 | C[C@H](N[C@@H](Cc1ccc(-c2cccc(Cl)c2)cc1)C(=O)Nc1cc(O)no1)C(=O)O [Example 32-4, (S)-2-[(S)-2-(3′-Chloro-biphenyl-4-yl)-1-(3-hydroxy-isoxazol-5-ylcarbamoyl)-ethylamino]-propionic acid] | 2.4 |  | 
7 | CCOC(=O)[C@H](C)C[C@@H](Cc1ccc(-c2ccccc2)cc1)NC(=O)CCC(=O)O [Example 34, (2R,4S)-5-Biphenyl-4-yl-4-(3-carboxy-propionylamino)-2-methyl-pentanoic acid ethyl ester] |  |  | % GFR increase ([1]; dose 100 mg/kg p.o.): 37%
8 | CCOC(=O)[C@H](C)C[C@@H](Cc1ccc(-c2cccc(Cl)c2)cc1)NC(=O)CCC(=O)O [Example 35, (2R,4S)-4-(3-carboxy-propionylamino)-5-(3′-chloro-biphenyl-4-yl)-2-methyl-pentanoic acid ethyl ester] |  | 22 | 
9 | Human Endogenous atrial natriuretic peptides (SLRRSSCFGGRMDRIGAQSGLGCNSFRY; ends and bridges not checked; cysteine pairing not given here; UniProt P01160 124-151, looked up) [Human ANP, "Human Endogenous atrial natriuretic peptides (ANP) infusions have been available in Japan for use in acute decompensated heart failure"; infused at 0.042 μg/kg/min] |  |  | reduction of the incidence of contrast-induced nephropathy [3]: 70%
